Here are results for 35 compounds from patent US7399775B2, “β-amyloid protein production/secretion inhibitor” (Daiichi Pharmaceutical Co., Ltd., priority 2001, dated 2008).

What is called EC50 is the concentration at which the effect is half-maximal. As a reminder, the melting point is the temperature of the solid-liquid transition.

The subject of the first data set is β-amyloid protein (Aβ) production/secretion in E35 cells (H4 cells transfected with APP751). The data set can be described thus: Cell-based assay for inhibition of production or secretion of β-amyloid protein (sandwich ELISA of Aβ in culture medium). On the set-up: species or system human. The conditions noted are these: 24 h with compound, Aβ in medium by sandwich ELISA, read-out: Activity (EC50 class, inhibition of Aβ secreted in culture medium). Here is the method:
Cell-Based Assay for Screening of a Compound Which Inhibits Production or Secretion of β-Amyloid Protein
E35 cells which were established by transfecting APP751 gene which is a wild type human β-amyloid protein precursor into human glioma cells (H4 cells), were used to analyze inhibitory activity of a compound against β-amyloid production. The amount of β protein (Aβ) secreted in a culture medium was measured by the sandwich enzyme-linked imunosorbent assay.
E35 cells were seeded in Dulbecco's Modified Eagle's Medium containing 10% inactivated fetal bovine serum on 96-well plates and cultured in humidified air and 5% CO2 at 37° C. in a CO2 incubator. Twenty-four hours after seeding of the cells, a test compound dissolved in DMSO was added to the medium. The DMSO solution of the compound was prepared so as to give the final concentration of DMSO in the medium 0.05%. The cells were cultured for additional twenty-four hours, and then the cultured medium was collected. The medium collected was applied to a 96-well ELISA plate on which a monoclonal antibody 25-1, which recognized Aβ25-35, was immobilized, followed by the incubation at 4° C. for 16 to 20 hours. After washing with a phosphate buffer (pH 7.4), a biotinylated monoclonal antibody MA32-40, which recognizes Aβ1-8, was added to the plate, and the plate was incubated at 4° C. for 2 hours. Then alkaline phosphatase-conjugated streptavidin was added to the plate. Alkaline phosphatase activity was measured by a […] assay using BlouPhos (manufactured by KPL) as a substrate. An amount of Aβ in the medium was calculated using a calibration curve separately created. EC50 of the test compound was presented as the concentration that gives 50% inhibitory activity compared to the control cells which were not treated with the compound.
(In general: An ELISA detects its analyte on a solid surface through an enzyme-linked reagent.)
For `CSCCCC(C)C(c1cc(F)ccc1F)S(=O)(=O)c1ccc(Cl)cc1` (single isomer, unassigned) [Example 43 (Isomer 43-B), 2-[1-[(4-Chlorophenyl)sulfonyl]-2-methyl-5-(methylthio)pentyl]-1,4-difluorobenzene], the EC50 lay within 0.05 to 0.5 µM.

Test system in another data set: not given
Test: not given
Settings: not given
Compound `CSC(c1cc(F)ccc1F)S(=O)(=O)c1ccc(Cl)cc1` (centres unmarked) [Example 56, 2-[1-[(4-Chlorophenyl)sulfonyl]-1-methylthio]methyl-1,4-difluorobenzene] gave a melting point of 128 to 129 °C.

In the case of `O=S(=O)(c1ccc(Cl)cc1)C(CCCCF)c1cc(F)ccc1F` (centres unmarked) [Example 231, 2-[1-(4-Chlorophenylsulfonyl)-5-fluoropentyl]-1,4-difluorobenzene], the melting point lay within 77 to 78 °C.

The compound `CC(C)(C)OC(=O)N1CCC(c2cc(F)ccc2F)(S(=O)(=O)c2ccc(Cl)cc2)CC1` [Example 259, t-Butyl 4-[(4-chlorophenyl)sulfonyl]-4-(2,5-difluorophenyl)-1-piperidinecarboxylate] registered a melting point of 101 to 106 °C.

The compound `COc1ccc(C(CCCCS(C)(=O)=O)S(=O)(=O)c2ccc(Cl)cc2)cc1` (centres unmarked) [Example 85, 1-[1-(4-Chlorophenylsulfonyl)-5-(methylsulfonyl)pentyl]-4-methoxybenzene] returned a melting point of 136 to 138 °C.

`O=C(CCCCCC(c1cc(F)ccc1F)S(=O)(=O)c1ccc(Cl)cc1)N1CCCC1` (centres unmarked) [Example 206, 7-[(4-Chlorophenyl)sulfonyl]-7-(2,5-difluorophenyl)-1-(1-pyrrolildinyl)-1-heptanone] yielded a melting point of 106 °C.

As to `CN(C)CC(=O)N1CCC(c2cc(F)ccc2F)(S(=O)(=O)c2ccc(Cl)cc2)CC1` [Example 271, 1-[4-[(4-Chlorophenyl)sulfonyl]-4-(2,5-difluorophenyl)piperidino]-2-(dimethylamino)-1-ethanone], the melting point was in the range of 88 to 92 °C.

Compound `O=S(=O)(c1ccc(Cl)cc1)C(CCN1CCCCC1)c1cc(F)ccc1F` (centres unmarked) [Example 320, 1-[3-(4-Chlorophenylsulfonyl)-3-(2,5-difluorophenyl)propyl]piperidine] came in with a melting point of 106 to 107 °C.

As to `O=S(=O)(c1ccc(Cl)cc1)C(Sc1ccccc1)c1cc(F)ccc1F` (centres unmarked) [Example 57, 2-[1-[(4-Chlorophenyl)sulfonyl]-1-phenylthio]methyl-1,4-difluorobenzene], the melting point lay in the range of 84 to 85 °C.

In the case of `CSCCCCC(c1cc(F)ccc1F)S(=O)(=O)c1ccc(Cl)cc1` (centres unmarked) [Example 26, 2-[1-[(4-Chlorophenyl)sulfonyl]-5-(methylthio)pentyl]-1,4-difluorobenzene], the melting point was 103 to 106 °C.

`O=S(=O)(c1ccc(Cl)cc1)C(CCCCc1ccccc1)c1cc(F)ccc1F` (centres unmarked) [Example 313, 2-[1-(4-Chlorophenylsulfonyl)-5-phenylpentyl]-1,4-difluorobenzene]: the melting point lay in the range of 88 to 90 °C.

`O=S(=O)(c1ccc(Cl)cc1)C1(c2nnn(Cc3ccccc3)n2)CCCCC1` [Example 197, 2-Benzyl-5-[1-(4-chlorobenzenesulfonyl)cyclohexyl]-2H-tetrazole]: the melting point fell in the range of 133 to 134 °C.

Consider `CS(=O)(=O)CCCCC(Cc1ccccc1)S(=O)(=O)c1ccc(Cl)cc1` (centres unmarked) [Example 97, 4-[1-Benzyl-5-(methylsulfonyl)pentylsulfonyl]-1-chlorobenzene], for which the melting point was 68 to 70 °C.

For `O=S(=O)(c1ccc(Cl)cc1)C(c1ccncc1)C1CCOCC1` (centres unmarked) [Example 122, 4-[(4-Chlorophenylsulfonyl)(tetrahydropyran-4-yl)methyl]pyridine], the melting point is 208 to 209 °C.

With `CS(=O)(=O)CCCCC(c1ccccn1)S(=O)(=O)c1ccc(Cl)cc1` (centres unmarked) [Example 70, 2-[1-[(4-Chlorophenyl)sulfonyl]-5-(methylsulfonyl)pentyl]pyridine], the melting point fell in the range of 140 to 141 °C.

`O=C(O)CC(c1cc(F)ccc1F)S(=O)(=O)c1ccc(Cl)cc1` (centres unmarked) [Example 62, 3-[(4-Chlorophenyl)sulfonyl]-3-(2,5-difluorophenyl)propionic Acid] returned a melting point of 152 to 153 °C.

Compound `O=S(=O)(CCO)CCC(c1cc(F)ccc1F)S(=O)(=O)c1ccc(Cl)cc1` (centres unmarked) [Example 255, 2-[3-[(4-Chlorophenyl)sulfonyl]-3-(2,5-difluorophenyl)propylsulfonyl]ethanol] came in with a melting point of 111 to 113 °C.

Regarding `CC(CCNS(C)(=O)=O)C(c1cc(F)ccc1F)S(=O)(=O)c1ccc(Cl)cc1` (centres unmarked) [Example 244, N-[4-[(4-Chlorophenyl)sulfonyl]-4-(2,5-difluorophenyl)-3-methylbutyl]methanesulfonamide], the melting point came out at 163 °C.

Take `CS(=O)(=O)NCCC(c1cc(F)ccc1F)S(=O)(=O)c1ccc(Cl)cc1` (centres unmarked) [Example 245, N-[3-(4-Chlorophenylsulfonyl)-3-(2,5-difluorophenyl)propyl]methanesulfonamide]: the melting point is 131 to 134 °C.

In turn, `C=COCCCCC(c1cc(F)ccc1F)S(=O)(=O)c1ccc(Cl)cc1` (centres unmarked) [Example 28, 2-[1-[(4-Chlorophenyl)sulfonyl]-5-vinyloxypentyl]-1,4-difluorobenzene] displayed a melting point of 54 to 56 °C.

The compound `O=C(CCCC(c1cc(F)ccc1F)S(=O)(=O)c1ccc(Cl)cc1)N1CCCC1` (centres unmarked) [Example 203, 5-[(4-Chlorophenyl)sulfonyl]-5-(2,5-difluorophenyl)-1-(1-pyrrolildinyl)-1-pentanone] came in with a melting point of 125 to 126 °C.

`CS(=O)(=O)CCCCC(c1ccc(F)cc1Cl)S(=O)(=O)c1ccc(Cl)cc1` (centres unmarked) [Example 68, 2-Chloro-1-[1-[(4-chlorophenyl)sulfonyl]-5-(methylsulfonyl)pentyl]-4-fluorobenzene] displayed a melting point of 124 to 125 °C.

In turn, `CS(=O)(=O)CCCCC(c1ccc(Cl)c(Cl)c1)S(=O)(=O)c1ccc(Cl)cc1` (centres unmarked) [Example 69, 1,2-Dichloro-4-[1-[(4-chlorophenyl)sulfonyl]-5-(methylsulfonyl)pentyl]benzene] returned a melting point of 143 to 144 °C.

Compound `O=c1oc2ccccc2c(O)c1C(Sc1ccc(Cl)cc1)c1cc(F)ccc1F` (centres unmarked) registered a melting point of 146 to 147 °C.

`O=S(=O)(c1ccc(Cl)cc1)C(c1cc[n+]([O-])cc1)c1cc(F)ccc1F` (centres unmarked) [Example 340, 4-[(4-Chlorophenylsulfonyl)-(2,5-difluorophenyl)methyl]pyridin-N-oxide] gave a melting point of 211 to 212 °C.

The compound `CS(=O)(=O)CCCCC(c1ccc(F)c(F)c1)S(=O)(=O)c1ccc(Cl)cc1` (centres unmarked) [Example 76, 4-[1-(4-Chlorophenylsulfonyl)-5-(methylsulfonyl)pentyl]-1,2-difluorobenzene] returned a melting point of 122 to 124 °C.

Compound `O=S(=O)(c1ccc(Cl)cc1)C1(c2cc(F)ccc2F)CCSCC1` [Example 251, 4-[(4-Chlorophenyl)sulfonyl]-4-(2,5-difluorophenyl)tetrahydrothiopyran] returned a melting point of 188 to 190 °C.

The compound `Cl.O=S(=O)(c1ccc(Cl)cc1)C(CCCCN1CCCC1)c1cc(F)ccc1F` (centres unmarked) gave a melting point of 167 to 170.5 °C.

In the case of `CS(=O)(=O)CCCCC(c1cnccc1Cl)S(=O)(=O)c1ccc(Cl)cc1` (centres unmarked) [Example 105, 4-Chloro-3-[1-[(4-chlorophenyl)sulfonyl]-5-(methylsulfonyl)pentyl]pyridine], the melting point was 156 to 157 °C.

As for `CN(C)CCCC(c1ccncc1)S(=O)(=O)c1ccc(Cl)cc1` (centres unmarked) [Example 125, 4-(4-Chlorophenylsulfonyl)-N,N-dimethyl-4-(pyridin-4-yl)butylamine], the melting point was in the range of 78 to 80 °C.

`CC1CCCC1(c1cc(F)ccc1F)S(=O)(=O)c1ccc(Cl)cc1` (centres unmarked) [Example 279, 2-[1-[(4-Chlorophenyl)sulfonyl]-2-methylcyclopentyl]-1,4-difluorobenzene] came in with a melting point of 105 to 109 °C.

`CN(C)CCC(c1ccncc1)S(=O)(=O)c1ccc(Cl)cc1` (centres unmarked) [Example 126, 3-(4-Chlorophenylsulfonyl)-N,N-dimethyl-3-(pyridin-4-yl)propylamine] displayed a melting point of 91 to 92 °C.

In turn, `O=C(O)CCCCCC(c1cc(F)ccc1F)S(=O)(=O)c1ccc(Cl)cc1` (centres unmarked) [Example 205, 7-[(4-Chlorophenyl)sulfonyl]-7-(2,5-difluorophenyl)heptanoic Acid] had a melting point of 72 to 76 °C.

As to `O=S(=O)(c1ccc(Cl)cc1)C(CCCCCBr)c1cc(F)ccc1F` (centres unmarked) [Example 37, 2-[6-Bromo-1-[(4-chlorophenyl)sulfonyl]hexyl]-1,4-difluorobenzene], the melting point lay in the range of 77 to 79 °C.

Consider `CCOC(=O)NCCC(c1cc(F)ccc1F)S(=O)(=O)c1ccc(Cl)cc1` (centres unmarked) [Example 222, Ethyl N-[3-[(4-chlorophenyl)sulfonyl]-3-(2,5-difluorophenyl)propyl]carbamate], for which the melting point lay within 121 to 122 °C.
